# Assays:
# CEM cells = assay: Cytotoxicity in uninfected CEM cells (trypan blue staining); settings: at concentrations not exceeding 10 mcg/ml
# Protocol: Human T cell-derived, T4 antigen-positive CEM cells (provided by the Institut Pasteur, France) were used as host cells of HIV. Cell culture was carried out in a carbon dioxide-containing atmosphere in an incubator maintained at 37°C according to a conventional method [cf. […] The culture supernatant (5×10⁶ TCID₅₀/ml) obtained by subjecting CEM cells to HIV (LAV 1) infection and stored at -70°C was used as the HIV source.
# The cell culture medium (10 ml) placed in a plastic culture flask (25 cm²) was inoculated with CEM cells to a cell density of 2.5×10⁵ cells/ml and incubation was performed for 3 days. Then, the culture was transferred to a 15-ml plastic centrifuge tube and centrifuged at 1,000 revolutions per minute for 5 minutes for medium removal. A fresh portion of the medium was added to the cells, the cell density being adjusted to 5.0×10⁵ cells/ml. The following mixture (1.0 ml) containing the cell suspension prepared in the above manner was incubated in a 24-well plastic culture plate for 4 days:
# The cells in each well were then suspended uniformly in the medium by pipetting and a 0.5-ml portion of the suspension was separated.
# A fresh 2-ml portion of the test substance-free medium was added to the remaining cell suspension (0.5 ml) and, after a further 3-day incubation, a cell suspension was produced in the same manner and a 0.5-ml portion thereof was removed.
# The cell suspensions collected in the above manner were subjected to viable cell count and viable cell percentage determinations by trypan blue staining.
# in vivo = settings: mouse
smiles,measurement,setting,value
"CC1COc2c(N3CCN(C)CC3)c(F)cc3c(=O)c(C(=O)O)cn1c23 (racemic) [OFLX, (±)-9-fluoro-3-methyl-10-(4-methyl-1-piperazinyl)-7-oxo-2,3-dihydro-7H-pyrido[1,2,3-de][1,4]benzoxazine-6-carboxylic acid]",cytotoxicity,CEM cells,no cytotoxicity
same,LD50,in vivo; po,5450 mg/kg
"C[C@H]1COc2c(N3CCN(C)CC3)c(F)cc3c(=O)c(C(=O)O)cn1c23 [DR-3355, (-)-(S)-9-fluoro-2,3-dihydro-3-methyl-10-(4-methyl-1-piperazinyl)-7-oxo-7H-pyrido[1,2,3-de][1,4]benzoxazine-6-carboxylic acid hemihydrate]",cytotoxicity,CEM cells,no cytotoxicity
same,LD50,in vivo; iv,≥ 200 mg/kg
"CCn1cc(C(=O)O)c(=O)c2cc(F)c(N3CCNCC3)cc21 [NFLX, 1-ethyl-6-fluoro-1,4-dihydro-4-oxo-7-(1-piperazinyl)-3-quinolinecarboxylic acid]",cytotoxicity,CEM cells,no cytotoxicity
same,LD50,in vivo; po,≥ 4000 mg/kg

# Reference: patent publication EP0394553A2, “Use of fluorine containing pyridone carboxylic acid derivatives for preparing a medicament for the treatment of HIV infections” (DAIICHI PHARMACEUTICAL CO., LTD., priority 1989, dated 1990)
